Reference: the NIST ThermoML archive (doi:10.1016/j.fluid.2008.03.004)
Numbers after ± are expanded uncertainties.

Assays:
[1] = 101 kPa, Liquid; for speed of sound: Sing-around technique in a fixed-path interferometer
[2] = xn = mol fraction of the nth substance listed; conditions: 101 kPa, Liquid, x2 = 0; for speed of sound: Sing-around technique in a fixed-path interferometer

## Cc1ccccc1C [1,2-dimethylbenzene]
[1]; 288.15 K
  mass density: 883.36 ± 0.35 kg/m3
  speed of sound: 1381.3 ± 2.2 m/s
[1]; 290.65 K
  mass density: 881.265 ± 0.35 kg/m3
  speed of sound: 1371.8 ± 2.2 m/s
[1]; 293.15 K
  mass density: 879.168 ± 0.35 kg/m3
  speed of sound: 1362.2 ± 2.2 m/s
[1]; 295.65 K
  mass density: 877.069 ± 0.36 kg/m3
  speed of sound: 1351.8 ± 2.2 m/s
[1]; 298.15 K
  mass density: 874.968 ± 0.36 kg/m3
  speed of sound: 1341.5 ± 2.2 m/s
[1]; 300.65 K
  mass density: 872.865 ± 0.36 kg/m3
  speed of sound: 1331.2 ± 2.2 m/s
[1]; 303.15 K
  mass density: 870.759 ± 0.36 kg/m3
  speed of sound: 1321 ± 2.2 m/s
[1]; 305.65 K
  mass density: 868.65 ± 0.37 kg/m3
  speed of sound: 1310.8 ± 2.2 m/s
[1]; 308.15 K
  mass density: 866.538 ± 0.37 kg/m3
  speed of sound: 1300.7 ± 2.2 m/s
[1]; 310.65 K
  mass density: 864.422 ± 0.38 kg/m3
  speed of sound: 1290.6 ± 2.2 m/s
[1]; 313.15 K
  mass density: 862.302 ± 0.38 kg/m3
  speed of sound: 1280.6 ± 2.2 m/s
[1]; 315.65 K
  mass density: 860.179 ± 0.38 kg/m3
  speed of sound: 1270.5 ± 2.2 m/s
[1]; 318.15 K
  mass density: 858.054 ± 0.38 kg/m3
  speed of sound: 1260.6 ± 2.2 m/s
[1]; 320.65 K
  mass density: 855.927 ± 0.39 kg/m3
  speed of sound: 1250.7 ± 2.2 m/s
[1]; 323.15 K
  mass density: 853.803 ± 0.39 kg/m3
  speed of sound: 1240.9 ± 2.2 m/s

## Cc1ccccc1C [1,2-dimethylbenzene] + CCOC(C)(C)C
[2]; 288.15 K
  speed of sound: 1381.3 ± 2.2 m/s
  mass density: 883.36 ± 0.35 kg/m3
[2]; 290.65 K
  speed of sound: 1371.8 ± 2.2 m/s
  mass density: 881.265 ± 0.35 kg/m3
[2]; 293.15 K
  speed of sound: 1362.2 ± 2.2 m/s
  mass density: 879.168 ± 0.35 kg/m3
[2]; 295.65 K
  speed of sound: 1351.8 ± 2.2 m/s
  mass density: 877.069 ± 0.36 kg/m3
[2]; 298.15 K
  speed of sound: 1341.5 ± 2.2 m/s
  mass density: 874.968 ± 0.36 kg/m3
[2]; 300.65 K
  speed of sound: 1331.2 ± 2.2 m/s
  mass density: 872.865 ± 0.36 kg/m3
[2]; 303.15 K
  speed of sound: 1321 ± 2.2 m/s
  mass density: 870.759 ± 0.36 kg/m3
[2]; 305.65 K
  speed of sound: 1310.8 ± 2.2 m/s
  mass density: 868.65 ± 0.37 kg/m3
[2]; 308.15 K
  speed of sound: 1300.7 ± 2.2 m/s
  mass density: 866.538 ± 0.37 kg/m3
[2]; 310.65 K
  speed of sound: 1290.6 ± 2.2 m/s
  mass density: 864.422 ± 0.38 kg/m3
[2]; 313.15 K
  speed of sound: 1280.6 ± 2.2 m/s
  mass density: 862.302 ± 0.38 kg/m3
[2]; 315.65 K
  speed of sound: 1270.5 ± 2.2 m/s
  mass density: 860.179 ± 0.38 kg/m3
[2]; 318.15 K
  speed of sound: 1260.6 ± 2.2 m/s
  mass density: 858.054 ± 0.38 kg/m3
[2]; 320.65 K
  speed of sound: 1250.7 ± 2.2 m/s
  mass density: 855.927 ± 0.39 kg/m3
[2]; 323.15 K
  speed of sound: 1240.9 ± 2.2 m/s
  mass density: 853.803 ± 0.39 kg/m3

## Cc1cccc(C)c1 [1,3-dimethylbenzene]
[1]; 288.15 K
  mass density: 868.459 ± 0.37 kg/m3
  speed of sound: 1362.7 ± 2.2 m/s
[1]; 290.65 K
  mass density: 866.318 ± 0.37 kg/m3
  speed of sound: 1352.1 ± 2.2 m/s
[1]; 293.15 K
  mass density: 864.177 ± 0.38 kg/m3
  speed of sound: 1341.7 ± 2.2 m/s
[1]; 295.65 K
  mass density: 862.035 ± 0.38 kg/m3
  speed of sound: 1331.3 ± 2.2 m/s
[1]; 298.15 K
  mass density: 859.89 ± 0.38 kg/m3
  speed of sound: 1320.9 ± 2.2 m/s
[1]; 300.65 K
  mass density: 857.742 ± 0.38 kg/m3
  speed of sound: 1310.6 ± 2.2 m/s
[1]; 303.15 K
  mass density: 855.593 ± 0.39 kg/m3
  speed of sound: 1300.3 ± 2.2 m/s
[1]; 305.65 K
  mass density: 853.441 ± 0.39 kg/m3
  speed of sound: 1290 ± 2.2 m/s
[1]; 308.15 K
  mass density: 851.282 ± 0.39 kg/m3
  speed of sound: 1279.8 ± 2.2 m/s
[1]; 310.65 K
  mass density: 849.122 ± 0.4 kg/m3
  speed of sound: 1269.6 ± 2.2 m/s
[1]; 313.15 K
  mass density: 846.958 ± 0.4 kg/m3
  speed of sound: 1259.5 ± 2.2 m/s
[1]; 315.65 K
  mass density: 844.792 ± 0.4 kg/m3
  speed of sound: 1249.3 ± 2.2 m/s
[1]; 318.15 K
  mass density: 842.622 ± 0.41 kg/m3
  speed of sound: 1239.3 ± 2.2 m/s
[1]; 320.65 K
  mass density: 840.452 ± 0.41 kg/m3
  speed of sound: 1229.3 ± 2.2 m/s
[1]; 323.15 K
  mass density: 838.289 ± 0.41 kg/m3
  speed of sound: 1219.5 ± 2.2 m/s

## Cc1cccc(C)c1 [1,3-dimethylbenzene] + CCOC(C)(C)C
[2]; 288.15 K
  speed of sound: 1362.7 ± 2.2 m/s
  mass density: 868.459 ± 0.37 kg/m3
[2]; 290.65 K
  speed of sound: 1352.1 ± 2.2 m/s
  mass density: 866.318 ± 0.37 kg/m3
[2]; 293.15 K
  speed of sound: 1341.7 ± 2.2 m/s
  mass density: 864.177 ± 0.38 kg/m3
[2]; 295.65 K
  speed of sound: 1331.3 ± 2.2 m/s
  mass density: 862.035 ± 0.38 kg/m3
[2]; 298.15 K
  speed of sound: 1320.9 ± 2.2 m/s
  mass density: 859.89 ± 0.38 kg/m3
[2]; 300.65 K
  speed of sound: 1310.6 ± 2.2 m/s
  mass density: 857.742 ± 0.38 kg/m3
[2]; 303.15 K
  speed of sound: 1300.3 ± 2.2 m/s
  mass density: 855.593 ± 0.39 kg/m3
[2]; 305.65 K
  speed of sound: 1290 ± 2.2 m/s
  mass density: 853.441 ± 0.39 kg/m3
[2]; 308.15 K
  speed of sound: 1279.8 ± 2.2 m/s
  mass density: 851.282 ± 0.39 kg/m3
[2]; 310.65 K
  speed of sound: 1269.6 ± 2.2 m/s
  mass density: 849.122 ± 0.4 kg/m3
[2]; 313.15 K
  speed of sound: 1259.5 ± 2.2 m/s
  mass density: 846.958 ± 0.4 kg/m3
[2]; 315.65 K
  speed of sound: 1249.3 ± 2.2 m/s
  mass density: 844.792 ± 0.4 kg/m3
[2]; 318.15 K
  speed of sound: 1239.3 ± 2.2 m/s
  mass density: 842.622 ± 0.41 kg/m3
[2]; 320.65 K
  speed of sound: 1229.3 ± 2.2 m/s
  mass density: 840.452 ± 0.41 kg/m3
[2]; 323.15 K
  speed of sound: 1219.5 ± 2.2 m/s
  mass density: 838.289 ± 0.41 kg/m3

## Cc1ccc(C)cc1 [1,4-dimethylbenzene]
[1]; 288.15 K
  mass density: 865.354 ± 0.37 kg/m3
  speed of sound: 1347.9 ± 2.2 m/s
[1]; 290.65 K
  mass density: 863.184 ± 0.38 kg/m3
  speed of sound: 1336.9 ± 2.2 m/s
[1]; 293.15 K
  mass density: 861.015 ± 0.38 kg/m3
  speed of sound: 1326.1 ± 2.2 m/s
[1]; 295.65 K
  mass density: 858.846 ± 0.38 kg/m3
  speed of sound: 1315.6 ± 2.2 m/s
[1]; 298.15 K
  mass density: 856.675 ± 0.39 kg/m3
  speed of sound: 1305.4 ± 2.2 m/s
[1]; 300.65 K
  mass density: 854.501 ± 0.39 kg/m3
  speed of sound: 1295.3 ± 2.2 m/s
[1]; 303.15 K
  mass density: 852.326 ± 0.39 kg/m3
  speed of sound: 1285.4 ± 2.2 m/s
[1]; 305.65 K
  mass density: 850.148 ± 0.4 kg/m3
  speed of sound: 1275.6 ± 2.2 m/s
[1]; 308.15 K
  mass density: 847.969 ± 0.4 kg/m3
  speed of sound: 1266.1 ± 2.2 m/s
[1]; 310.65 K
  mass density: 845.784 ± 0.4 kg/m3
  speed of sound: 1256.4 ± 2.2 m/s
[1]; 313.15 K
  mass density: 843.599 ± 0.41 kg/m3
  speed of sound: 1246.8 ± 2.2 m/s
[1]; 315.65 K
  mass density: 841.41 ± 0.41 kg/m3
  speed of sound: 1237.6 ± 2.2 m/s
[1]; 318.15 K
  mass density: 839.22 ± 0.41 kg/m3
  speed of sound: 1228.1 ± 2.2 m/s
[1]; 320.65 K
  mass density: 837.031 ± 0.41 kg/m3
  speed of sound: 1220.5 ± 2.2 m/s
[1]; 323.15 K
  mass density: 834.849 ± 0.42 kg/m3
  speed of sound: 1211 ± 2.2 m/s
